Experimental data from paper PMC8558239, “Interaction Between Florfenicol and Doxycycline Involving Cytochrome P450 3A in Goats (Capra hricus)” (Frontiers in Veterinary Science, 2021).
Read-outs that look alike come from different tables or passages of the source.

Columns and labels:
CYP3A24 gene = experiment: Gene expression of CYP3A24 in goat liver (qPCR); type: in vivo, goats
Procedure: Throughout the experiment, all goats had ad libitum access to feed and water without antibiotics. The goats were divided into three groups, namely the control group (6 animals), the single group (24 animals), and the combined group (24 animals). The control group was fed without medication. In the single group, FF (Zhonglongshenli Animal Pharmaceutical Co., Ltd. Hefei, China, specification: 10 mL: 1 g) was injected into the neck muscles at 48 h intervals, twice in total. In the combined group, FF was injected into the neck muscles at 48 h intervals, twice in total, and DOX-hyclate (Zhonglongshenli Animal Pharmaceutical Co., Ltd. Hefei, China, specification: 10 mL: 1 g) was injected into the neck muscles, once a day for 3 days. The volume of the treatment solution was calculated individually for each goat to provide a dose equivalent to 20 mg FF/kg bw and 10 mg DOX/kg bw. […]
Real-time quantitative polymerase chain reaction (qPCR) was used to detect the expression of CYP3A24 in treated goats. […] The concentration and purity of RNA was detected by Q3000 (Thermo, USA). […] The data were analyzed by the 2^ΔΔCt method.

[1] = Tissue residue depletion in goats (LC-MS/MS); type: in vivo, goats (Capra hircus); settings: both sexes, Boaer-cross, intramuscular, i.m., mean ± SD, 4 goats; for concentration at 0.5 days: 0.5 days after last dose; for concentration at 1 day: 1 day after last dose
Procedure: In this study, a total of 54 Boaer-cross goats (Capra hircus) of both sexes, about 8 months old, were selected, weighing 28–36 kg. During the 1st week of acclimatization, all animals were raised in the usual way, with free access to feed and water. The experiment was conducted in accordance with the Guidelines for the Care and Use of Laboratory Animals issued by HZAU and approved by the Ethics Committee of Veterinary College of HZAU.
Throughout the experiment, all goats had ad libitum access to feed and water without antibiotics. The goats were divided into three groups, namely the control group (6 animals), the single group (24 animals), and the combined group (24 animals). The control group was fed without medication. In the single group, FF (Zhonglongshenli Animal Pharmaceutical Co., Ltd. Hefei, China, specification: 10 mL: 1 g) was injected into the neck muscles at 48 h intervals, twice in total. In the combined group, FF was injected into the neck muscles at 48 h intervals, twice in total, and DOX-hyclate (Zhonglongshenli Animal Pharmaceutical Co., Ltd. Hefei, China, specification: 10 mL: 1 g) was injected into the neck muscles, once a day for 3 days. The volume of the treatment solution was calculated individually for each goat to provide a dose equivalent to 20 mg FF/kg bw and 10 mg DOX/kg bw.
Goats of the single group (treated with FF) and goats of the combined group (treated with FF and DOX) were euthanized as previously described at 0.5 (n = 4), 1 (n = 4), 3 (n = 4), 7 (n = 4), 14 (n = 4), and 21 days (n = 4) after the last dose of 20 mg FF/kg bw (single group) and after the last dose of 20 mg FF/kg bw plus 10 mg DOX/kg bw (combined group). Goats were immediately exsanguinated, and tissue specimens of liver, kidney and muscle were collected separately. Each of the tissue specimens was carefully weighed and stored frozen at −20°C until assayed for concentrations of FF and FFA.
The method of FF and FFA pre-processing in the target tissues was as follows: Tissue samples weighing 1.00 ± 0.01 g were placed in a 10 mL centrifuge tube, then 5 mL 2% ammoniated ethyl acetate was added, and the tube was vortexed, sonicated and centrifuged. The above steps were repeated, and the supernatants were pooled and dried under a stream of nitrogen. The residue was reconstituted in 5% acetic acid in water, vortexed and passed through an MCX solid-phase extraction column (the order of the column was methanol, water, sample, 5% acetic acid water and 8% ammoniated ethyl acetate), then the eluate was dried under nitrogen, re-dissolved in 2 mL of degreased n-hexane, passed through a 0.22 μm filter membrane and subjected to LC-MS/MS (AB SCIEX API5000, USA) analysis.
All inter-assay coefficients of variation in each tissue were within 9.93%, the intra-assay coefficients of variation in each tissue were within 11.08%, and the recovery rates in each tissue were between 70.62 and 113.55%. […] For FF and FFA, the LOQ of the analysis was 10 μg/kg, and the LOD of the analysis was 2 μg/kg. The peak times of FFA and FF were 1.80 and 6.05, respectively (Figure 1).

CYP3A24 R440A = settings: mutant R440A
CYP3A24 R372A = settings: mutant R372A
[2] = test system: CYP3A24 and its mutants (R105A, R372A, R440A); experiment: Protein activity verification of CYP3A24 and its mutants with testosterone; settings: TS 1 μmol/L, 60 min
Procedure: Testosterone (TS) is a specific substrate of CYP3A, which can generate 6β-OHTS under the action of CYP3A ([21]). In order to study the protein activity of CYP3A24 and its mutants, we incubated each protein with TS. The experimental steps were as follows: protein (0.5 mg/mL) and NADPH (1 mmol/L) were added to PBS (pH 7.4) for 10 min at 37°C, then TS (Dr. Ehrenstorfer GmbH, Germany, 1 μmol/L) was added to start the reaction. The total reaction volume was 200 μL. At 60 min after drug addition, 200 μL of ice-cold acetonitrile was added to terminate the reaction. After centrifugation at 12,000 g/min for 15 min, the supernatant was filtered through a 0.22 μm membrane and analyzed by LC-MS/MS (AB SCIEX API5000, USA). For TS and 6β-OHTS, chromatographic separation occurred using a Thermo Scientific Hypersil Gold C18 column (150 × 2.1 mm, 5 μm particles), and analytes were detected on an API5000 mass analyser. Mobile phase A was 0.1% formic acid in water, and mobile phase B was methanol. The flow rate was 0.2 mL/min with a linear gradient under the following conditions: 0–0.10 min 5–85% B, 0.10–4.10 min 85% B, 4.10–8.00 min 85–5% B. The injection volume was set to 10 μL.

CYP3A24 = experiment: Incubation of recombinant CYP3A24 with FF and DOX (FFA production); type: in vitro ADME, goat; settings: FF incubated with CYP3A24
[3] = goat, 20 mg/kg bw, kidney, read-out: Tissue concentration FF
[4] = goat, 20 mg/kg bw, liver, read-out: Tissue concentration FF
[5] = goat, 20 mg/kg bw, muscle, read-out: Tissue concentration FF

Question: Which results are given for CS(=O)(=O)c1ccc([C@@H](O)[C@@H](CF)NC(=O)C(Cl)Cl)cc1 [FF]?
Answer: up-regulation of CYP3A24 gene expression compared to control (CYP3A24 gene; 1 day after treatment stopped): about 2.3 fold; up-regulation of CYP3A24 gene expression compared to control (CYP3A24 gene; 3 days after treatment stopped): ~3 fold; concentration at 3 days after last dose ([1]; goat (Capra hircus), 20 mg FF/kg bw, liver, 3 days after last dose): 936 ± 148 ng/g; concentration at 7 days after last dose ([1]; goat (Capra hircus), 20 mg FF/kg bw, liver, 7 days after last dose): 338 ± 126 ng/g; concentration at 14 days after last dose ([1]; goat (Capra hircus), 20 mg FF/kg bw, liver, 14 days after last dose): 179 ± 26.5 ng/g; concentration at 21 days after last dose ([1]; goat (Capra hircus), 20 mg FF/kg bw, liver, 21 days after last dose): 44.5 ± 17.6 ng/g; concentration at 0.5 days [1, 3]: 2260 ± 203 ng/g; concentration at 1 day [1, 3]: 1770 ± 142 ng/g; concentration at 3 days ([1]; goat, 20 mg/kg bw, kidney, 3 days after last dose, read-out: Tissue concentration FF): 843 ± 124 ng/g; concentration at 7 days ([1]; goat, 20 mg/kg bw, kidney, 7 days after last dose, read-out: Tissue concentration FF): 327 ± 43.4 ng/g; concentration at 14 days ([1]; goat, 20 mg/kg bw, kidney, 14 days after last dose, read-out: Tissue concentration FF): 131 ± 17.1 ng/g; concentration at 21 days ([1]; goat, 20 mg/kg bw, kidney, 21 days after last dose, read-out: Tissue concentration FF): 37.5 ± 8.6 ng/g; concentration at 0.5 days [1, 4]: 2790 ± 257 ng/g; concentration at 1 day [1, 4]: 2050 ± 310 ng/g; concentration at 0.5 days [1, 5]: 1760 ± 201 ng/g; concentration at 1 day [1, 5]: 858 ± 43.2 ng/g; concentration at 3 days ([1]; goat, 20 mg/kg bw, muscle, 3 days after last dose, read-out: Tissue concentration FF): 376 ± 58.1 ng/g; concentration at 7 days ([1]; goat, 20 mg/kg bw, muscle, 7 days after last dose, read-out: Tissue concentration FF): 162 ± 4.6 ng/g; concentration at 14 days ([1]; goat, 20 mg/kg bw, muscle, 14 days after last dose, read-out: Tissue concentration FF): 48.6 ± 7.6 ng/g; reduction of FF metabolism (FFA production) vs CYP3A24 (CYP3A24 R440A): 65.8%; reduction of FF metabolism (FFA production) vs CYP3A24 (CYP3A24 R372A): 32.9%

Question: Which “metabolism of TS into 6β-OHTS” value [2] does the source give for C[C@]12CC[C@H]3[C@@H](CCC4=CC(=O)CC[C@@]43C)[C@@H]1CC[C@@H]2O [TS, Testosterone] here?
Answer: could metabolize TS

Question: With C[C@H]1c2cccc(O)c2C(=O)C2=C(O)[C@]3(O)C(=O)C(C(N)=O)=C(O)[C@@H](N(C)C)[C@@H]3[C@@H](O)[C@@H]21 [DOX, α-6-deoxy-5-hydroxytetracycline] as the molecule, how does the “reduction of FFA production on addition of DOX” value (CYP3A24) read?
Answer: 17.8%
